According to patent EP4755888A1 (ILAb Co., Ltd., priority 2023, dated 2025):
pIC50: −log10 of the molar value.

Target: PD-1/PD-L1 (Homo sapiens, UniProt Q9NZQ7)
Test: TR-FRET PD-1/PD-L1 binding inhibition at the molecular level (free proteins)
Settings: Tag1-PD-L1 and Tag2-PD-1 proteins, twelve concentrations from 200 nM, 2 hours at room temperature, read-out: FRET assay (IC50)
Outline: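 HTRF read-out at 665/620 nm after 2 h at room temperature. Detection used anti-Tag1 Eu cryptate plus anti-Tag2 XL665 antibodies. Tagged PD-L1 and PD-1 proteins were pre-mixed with compound across twelve […] 1:2 dilutions starting at 200 nM.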

PD-1/PD-L1, sequence (Q9NZQ7 19-238 limits assumed): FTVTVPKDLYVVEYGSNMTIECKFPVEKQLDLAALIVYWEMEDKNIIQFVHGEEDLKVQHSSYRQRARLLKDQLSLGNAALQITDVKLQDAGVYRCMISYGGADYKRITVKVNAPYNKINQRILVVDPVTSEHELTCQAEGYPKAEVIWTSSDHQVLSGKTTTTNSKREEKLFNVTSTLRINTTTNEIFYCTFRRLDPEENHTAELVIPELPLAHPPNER

pIC50 | SMILES
7.00 to 8.00 | O=C(Nc1cccc(-c2cccc(Nc3nc(C(F)(F)F)nc4cccnc34)c2Cl)c1Cl)c1cc2n(n1)CCC[C@@H]2N1CCC(O)CC1 [Compound 303, (S)-N-(2,2'-dichloro-3'-((2-(trifluoromethyl)pyrido[3,2-d]pyrimidin-4-yl)amino)-[1,1'-biphenyl]-3-yl)-4-(4-hydroxypiperidin-1-yl)-4,5,6,7-tetrahydropyrazolo[1,5-a]pyridine-2-carboxamide]
> 8.00 | N#Cc1cc(CN2CC[C@@H](C(=O)O)C2)cc2nc(-c3cccc(-c4cccc(NC(=O)c5cc6n(n5)CCCC6NCCO)c4Cl)c3Cl)oc12 (stereo partly drawn) [Compound 70, (3R)-1-((7-cyano-2-(2,2'-dichloro-3'-(4-((2-hydroxyethyl)amino)-4,5,6,7-tetrahydropyrazolo[1,5-a]pyridine-2-carboxamido)-[1,1'-biphenyl]-3-yl)benzo[d]oxazol-5-yl)methyl)pyrrolidine-3-carboxylic acid]
> 8.00 | Cc1c(NC(=O)c2cc3n(n2)CCCC3NCC(=O)O)cccc1-c1cccc(Nc2nccc3cc(CN4CC[C@@H](O)C4)cnc23)c1C (stereo partly drawn) [Compound 16, 2-((2-((3'-((3-(((R)-3-hydroxypyrrolidin-1-yl)methyl)-1,7-naphthyridin-8-yl)amino)-2,2'-dimethyl-[1,1'-biphenyl]-3-yl)carbamoyl)-4,5,6,7-tetrahydropyrazolo[1,5-a]pyridin-4-yl)amino)acetic acid]
> 8.00 | COc1cc(C(=O)Nc2cccc(-c3cccc(NC(=O)c4cc5n(n4)CCCC5NCC(=O)O)c3Cl)c2Cl)cc(F)c1CN1CC[C@@H](C(=O)O)C1 (stereo partly drawn) [Compound 193, (3R)-1-(4-((3'-(4-((carboxymethyl)amino)-4,5,6,7-tetrahydropyrazolo[1,5-a]pyridine-2-carboxamido)-2,2'-dichloro-[1,1'-biphenyl]-3-yl)carbamoyl)-2-fluoro-6-methoxybenzyl)pyrrolidine-3-carboxylic acid]
7.00 to 8.00 | O=C(Nc1cccc(-c2cccc(Nc3nc(C(F)(F)F)nc4cccnc34)c2Cl)c1Cl)c1cc2n(n1)CCC[C@@H]2N1CC[C@@H](O)C1 [Compound 333, (S)-N-(2,2'-dichloro-3'-((2-(trifluoromethyl)pyrido[3,2-d]pyrimidin-4-yl)amino)-[1,1'-biphenyl]-3-yl)-4-((R)-3-hydroxypyrrolidin-1-yl)-4,5,6,7-tetrahydropyrazolo[1,5-a]pyridine-2-carboxamide]
7.00 to 8.00 | CN[C@H]1CCCn2nc(C(=O)Nc3cccc(-c4cccc(Nc5nc(C(F)F)nc6cc(CN7CC[C@@H](O)C7)cnc56)c4Cl)c3Cl)cc21 [Compound 354, (S)-N-(2,2'-dichloro-3'-((2-(difluoromethyl)-7-(((R)-3-hydroxypyrrolidin-1-yl)methyl)pyrido[3,2-d]pyrimidin-4-yl)amino)-[1,1'-biphenyl]-3-yl)-4-(methylamino)-4,5,6,7-tetrahydropyrazolo[1,5-a]pyridine-2-carboxamide]
7.00 to 8.00 | O=C(Nc1cccc(-c2cccc(Nc3nccc4cc(CN5CC(F)C5)cnc34)c2Cl)c1Cl)c1cc2n(n1)CCC[C@H]2N1CCC(C(=O)O)CC1 [Compound 284, (R)-1-(2-((2,2'-dichloro-3'-((3-((3-fluoroazetidin-1-yl)methyl)-1,7-naphthyridin-8-yl)amino)-[1,1'-biphenyl]-3-yl)carbamoyl)-4,5,6,7-tetrahydropyrazolo[1,5-a]pyridin-4-yl)piperidine-4-carboxylic acid]
> 8.00 | CC(=O)NCCNC1CCCn2nc(C(=O)Nc3cccc(-c4cccc(NC(=O)c5cc6n(n5)CCCC6NCCNC(C)=O)c4C)c3C)cc21 (stereo not drawn) [Compound 5, N,N'-(2,2'-dimethyl-[1,1'-biphenyl]-3,3'-diyl)bis(4-((2-acetamidoethyl)amino)-4,5,6,7-tetrahydropyrazolo[1,5-a]pyridine-2-carboxamide)]
> 8.00 | CC(=O)NCCNC1CCCn2nc(C(=O)Nc3cccc(-c4cccc(NC(=O)c5ccc(CN6CC[C@@H](O)C6)cn5)c4Cl)c3Cl)cc21 (stereo partly drawn) [Compound 103, 4-((2-acetamidoethyl)amino)-N-(2,2'-dichloro-3'-(5-(((R)-3-hydroxypyrrolidin-1-yl)methyl)picolinamido)-[1,1'-biphenyl]-3-yl)-4,5,6,7-tetrahydropyrazolo[1,5-a]pyridine-2-carboxamide]
> 8.00 | O=C(Nc1cccc(-c2cccc(NC(=O)c3cc4n(n3)CCCC4N3CC[C@@H](C(=O)O)C3)c2Cl)c1Cl)c1ccc(CN2CC[C@@H](O)C2)c(F)n1 (stereo partly drawn) [Compound 203, (3R)-1-(2-((2,2'-dichloro-3'-(6-fluoro-5-(((R)-3-hydroxypyrrolidin-1-yl)methyl)picolinamido)-[1,1'-biphenyl]-3-yl)carbamoyl)-4,5,6,7-tetrahydropyrazolo[1,5-a]pyridin-4-yl)pyrrolidine-3-carboxylic acid]
> 8.00 | O=C(Nc1cccc(-c2cccc(Nc3nc(C(F)F)nc4cccnc34)c2Cl)c1Cl)c1cc2n(n1)CCC[C@@H]2N1CCC(C(=O)O)CC1 [Compound 289, (S)-1-(2-((2,2'-dichloro-3'-((2-(difluoromethyl)pyrido[3,2-d]pyrimidin-4-yl)amino)-[1,1'-biphenyl]-3-yl)carbamoyl)-4,5,6,7-tetrahydropyrazolo[1,5-a]pyridin-4-yl)piperidine-4-carboxylic acid]
> 8.00 | CC(C)(N[C@@H]1CCCn2nc(C(=O)Nc3cccc(-c4cccc(Nc5nc(C(F)(F)F)nc6cccnc56)c4Cl)c3Cl)cc21)C(=O)O [Compound 276, (R)-2-((2-((2,2'-dichloro-3'-((2-(trifluoromethyl)pyrido[3,2-d]pyrimidin-4-yl)amino)-[1,1'-biphenyl]-3-yl)carbamoyl)-4,5,6,7-tetrahydropyrazolo[1,5-a]pyridin-4-yl)amino)-2-methylpropanoic acid]
> 8.00 | O=C(O)CNC1CCCn2nc(C(=O)Nc3cccc(-c4cccc(NC(=O)c5ccc(CN6CC[C@@H](O)C6)cn5)c4Cl)c3Cl)cc21 (stereo partly drawn) [Compound 104, 2-((2-((2,2'-dichloro-3'-(5-(((R)-3-hydroxypyrrolidin-1-yl)methyl)picolinamido)-[1,1'-biphenyl]-3-yl)carbamoyl)-4,5,6,7-tetrahydropyrazolo[1,5-a]pyridin-4-yl)amino)acetic acid]
7.00 to 8.00 | COc1cc(-c2cccc(-c3cccc(NC(=O)c4cc5n(n4)CCCC5N4CC[C@@H](O)C4)c3Cl)c2Cl)cc(F)c1CNC[C@@H]1CCC(=O)N1 (stereo partly drawn) [Compound 127, N-(2,2'-dichloro-3"-fluoro-5"-methoxy-4"-(((((S)-5-oxopyrrolidin-2-yl)methyl)amino)methyl)-[1,1':3',1"-terphenyl]-3-yl)-4-((R)-3-hydroxypyrrolidin-1-yl)-4,5,6,7-tetrahydropyrazolo[1,5-a]pyridine-2-carboxamide]
> 8.00 | Cc1c(NC(=O)c2ccc(CNCCO)cn2)cccc1-c1cccc(NC(=O)c2cc3n(n2)CCCC3NCC(=O)O)c1C (stereo not drawn) [Compound 76, 2-((2-((3'-(5-(((2-hydroxyethyl)amino)methyl)picolinamido)-2,2'-dimethyl-[1,1'-biphenyl]-3-yl)carbamoyl)-4,5,6,7-tetrahydropyrazolo[1,5-a]pyridin-4-yl)amino)acetic acid]
> 8.00 | O=C(O)CNC1CCCn2nc(C(=O)Nc3cccc(-c4cccc(Nc5nccc6cc(CN7CC[C@@H](O)C7)cnc56)c4Cl)c3Cl)cc21 (stereo partly drawn) [Compound 26, 2-((2-((2,2'-dichloro-3'-((3-(((R)-3-hydroxypyrrolidin-1-yl)methyl)-1,7-naphthyridin-8-yl)amino)-[1,1'-biphenyl]-3-yl)carbamoyl)-4,5,6,7-tetrahydropyrazolo[1,5-a]pyridin-4-yl)amino)acetic acid]
7.00 to 8.00 | COc1cc(/C(F)=C/c2cccc(-c3cccc(NC(=O)c4cc5n(n4)CCC[C@@H]5N4CC[C@@H](O)C4)c3Cl)c2Cl)ncc1CN1CC[C@@H](O)C1 [Compound 335, (S)-N-(2,2'-dichloro-3'-((Z)-2-fluoro-2-(5-(((R)-3-hydroxypyrrolidin-1-yl)methyl)-4-methoxypyridin-2-yl)vinyl)-[1,1'-biphenyl]-3-yl)-4-((R)-3-hydroxypyrrolidin-1-yl)-4,5,6,7-tetrahydropyrazolo[1,5-a]pyridine-2-carboxamide]
> 8.00 | CC(C)(NC1CCCn2nc(C(=O)Nc3cccc(-c4cccc(Nc5nc(C(F)F)nc6cc(CN7CC[C@@H](O)C7)cnc56)c4Cl)c3Cl)cc21)C(=O)O (stereo partly drawn) [Compound 146, 2-((2-((2,2'-dichloro-3'-((2-(difluoromethyl)-7-(((R)-3-hydroxypyrrolidin-1-yl)methyl)pyrido[3,2-d]pyrimidin-4-yl)amino)-[1,1'-biphenyl]-3-yl)carbamoyl)-4,5,6,7-tetrahydropyrazolo[1,5-a]pyridin-4-yl)amino)-2-methylpropanoic acid]
7.00 to 8.00 | O=C(Nc1cccc(-c2cccc(Nc3nc(C(F)F)nc4cccnc34)c2Cl)c1Cl)c1cc2n(n1)CCC[C@@H]2N1CCC(O)CC1 [Compound 305, (S)-N-(2,2'-dichloro-3'-((2-(difluoromethyl)pyrido[3,2-d]pyrimidin-4-yl)amino)-[1,1'-biphenyl]-3-yl)-4-(4-hydroxypiperidin-1-yl)-4,5,6,7-tetrahydropyrazolo[1,5-a]pyridine-2-carboxamide]
7.00 to 8.00 | O=C(Nc1cccc(-c2cccc(Nc3nccc4cc(CN5CC[C@@H](O)C5)cnc34)c2Cl)c1Cl)c1cc2n(n1)CCCC2N1CC[C@@H](C(=O)O)C1 (stereo partly drawn) [Compound 228, (3R)-1-(2-((2,2'-dichloro-3'-((3-(((R)-3-hydroxypyrrolidin-1-yl)methyl)-1,7-naphthyridin-8-yl)amino)-[1,1'-biphenyl]-3-yl)carbamoyl)-4,5,6,7-tetrahydropyrazolo[1,5-a]pyridin-4-yl)pyrrolidine-3-carboxylic acid]

SMILES | pIC50
Cc1c(-c2cc3n(n2)CCCC3N2CCC(O)C2)cccc1-c1cccc(-c2cc3n(n2)CCCC3N2CCC(O)C2)c1C [Compound 156, (3R,3'R)-1,1'-(2,2'-(2,2'-dimethyl-[1,1'-biphenyl]-3,3'-diyl)bis(4,5,6,7-tetrahydropyrazolo[1,5-a]pyridine-4,2-diyl))bis(pyrrolidin-3-ol)] | 6.00 to 7.00
